In publication PMC6222871, “Suppression of Hepatitis C Virus Genome Replication and Particle Production by a Novel Diacylglycerol Acyltransferases Inhibitor” (Molecules : A Journal of Synthetic Chemistry and Natural …, 2018):

Tests used:
[1] = test system: recombinant DGAT-2; design: method as in PMID 23242135; details: cited from earlier work
[2] = test system: HCV NS3 (Huh7.5-J6/JFH1, genotype 2a); experiment: western blot of HCV NS3 protein in Huh7.5-J6/JFH1 cells
Procedure: (§1) Due to the tight coupling of viral genome replication to its protein expression, inhibition of viral RNA genome replication leads to a subsequent reduction of viral protein expression.
(§2) (A) Dose-dependent western blot analysis of Huh7.5-J6/JFH1 cells treated with increasing concentrations of 10j for 72 h by measuring protein expression levels of HCV NS3 relative to the β-actin. Daclatasvir, an NS5A inhibitor was used as a positive control. (B) Time-dependent western blot analysis of J6/JFH1 RNA-transfected Huh7.5 cells treated with 8 μM of 10j for increasing periods of time analyzed by measuring protein expression levels of HCV NS3 relative to the β-actin. (C,D) Same experiments were performed as in (A,B) to study effects of 10j on the expression levels of the NS5A protein of Huh7.5-Bart79I cells in a dose- as well as time-dependent manners.
(§3) Western blot analysis of Huh7.5-J6/JFH1 or Bart79I cells treated with 10j was conducted as previously described. Relative amounts of HNF4α proteins were quantified by using an HNF4α mouse monoclonal antibody (M04), clone 4E2 (Abnova) with the dilution of 1:1000.

[3] = test system: Huh7.5-J6/JFH1 cells; experiment: FACS analysis of LD-positive (BODIPY) J6/JFH1 cells; assay type: cell-based; details: 8 μM, 72 h, with BODIPY; DMSO 78.2%
Procedure: Huh7.5-J6/JFH1 cells were plated onto a 10 cc plate (Corning) and supplemented with either DMSO or 8 μM of 10j for 72 h. Then, Huh7.5-J6/JFH1 cells were fixed by using 4% paraformaldehyde for 10 min and permeabilized using 0.1% saponin in PBS for 20 min. Huh7.5-J6/JFH1 cells were stained with 0.001% BODIPY 493/503 D3922 (Invitrogen) in saponin for 1 h at 4 °C. The FACSAriaIII (BD Biosciences, Franklin Lakes, NJ, USA) was used for the flow cytometric analysis as previously described.

[4] = test system: HCV NS5A (Huh7.5-Bart79I, genotype 1b); experiment: western blot of HCV NS5A protein in Huh7.5-Bart79I cells; assay type: cell-based, hepatitis C virus
Procedure: as §1, §2, §3

[5] = test system: HCV IRES; experiment: HCV IRES-dependent translation, dual luciferase reporter in Huh7.5 cells; assay type: cell-based, hepatitis C virus; details: up to 10 μM
Procedure: A dual luciferase reporter plasmid, which expresses firefly and renila luciferases through cap and HCV IRES-dependent translation, was transfected into Huh7.5 cells in the presence of 10j. Dual luciferase assay was conducted as previously described.

[6] = design: method as in PMID 23141914; details: cited from earlier work
[7] = test system: DGATs (rat liver microsome); design: method as in PMID 23141914, PMID 23242135; details: cited from earlier work
[8] = test system: HepG2 cells; design: method as in PMID 23242135; details: [14C] glycerol as substrate; cited from earlier work
[9] = test system: Huh7.5 cells; experiment: visualization of intracellular LD by BODIPY in Huh7.5 cells; assay type: cell-based; details: 8 μM, 72 h
Procedure: Huh7.5 cells were incubated in a 24-well plate on top of coverslip in the presence of either DMSO, 8 μM of 10j, or 20 μM of A922500 for 72 h. Then, Huh7.5 cells were fixed by using 4% paraformaldehyde for 15 min and stained with 0.001% BODIPY 493/503 D3922 (Invitrogen, Carlsbad, CA, USA) for 10 min. The coverslips were mounted onto slides using Prolong Gold anti-fade reagent with DAPI (Invitrogen, Carlsbad, CA, USA) Fluorescence were examined and captured by Nikon confocal laser scanning microscopic system. LD content was quantified using the ImageJ program.

[10] = MTT-based cell viability assay (EZ-CYTOX); details: human
Procedure: To order to study impacts of DGAT inhibitors on HCV genome replication independently of the particle production, we decided to examine effects of these twelve DGAT inhibitors on the levels of viral RNA genome and cell viability in parallel. […] Then, we treated them with an increasing concentration of each DGAT inhibitor. Then, luciferase and MTT-based cell viability assays were performed to determine EC50 and CC50 (cytotoxic concentration required to kill 50% of treated cells) values, respectively.
Cell viability was measured with EZ-CYTOX (10% tetrazolium salt; Dogen, Gyeonggi-do, Korea) as described previously. Anti-HCV replication analysis using a luciferase assay was conducted as previously described.

[11] = test system: HNF4α; experiment: HNF4α western blot in Huh7.5-J6/JFH1 cells; assay type: cell-based; details: up to 10 μM, 72 h
Description: Since DGATs play an important role in maintaining liver-likeness in hepatocytes, the antiviral effect of 10j might be due to mere loss of this liver-specific character. […] In addition, HNF4α was also reported to be reduced in DGAT1-silenced cell lines. Therefore, we wished to test effects of 10j on HNF4α.

Structure (SMILES): O=C(NCc1ccco1)c1ccc2[nH]c(COc3ccc(C45CC6CC(CC(C6)C4)C5)cc3)nc2c1 [10j, 2-{[4-(adamant-1yl)phenoxy]methyl)-N-(furan-2-ylmethyl)-1H-benzo[d]imidazole-5-carboxamide]
- IC50 [1]: 17.3 µM
- EC50 ([2]; Hepatitis C virus, GETYPE2A, 72 h, read-out: concentration required for reducing 50% of HCV protein expression (EC50)): 3.6 µM
- time required for reducing 50% of HCV protein expression (T1/2) ([2]; genotype 2a, 10 μM of 10j, 8 μM (figure legend)): 37.8 h
- relative number of LD-positive J6/JFH1 cells [3]: 38.6%
- time required for reducing 50% of HCV protein expression (T1/2) ([4]; 10 μM of 10j, 8 μM (figure legend)): 37.4 h
- EC50 ([4]; Hepatitis C virus, NS5A, read-out: concentration required for reducing 50% of HCV protein expression (EC50)): 4.1 µM
- HCV IRES-dependent translation [5]: remained unaltered
- fat tissues ([6]; mice fed with high-fat diet, versus control mice): significant decrease
- high-density lipoprotein-cholesterol ([6]; mice): significant increase
- total TG, total cholesterol and low-density lipoprotein cholesterol in the blood ([6]; mice): decreased levels
- IC50 [7]: 4.4 µM
- TG % (10 μM in HepG2), relative [14C] triglyceride percentage [8]: 45.0%
- reduction in the level of LDs (BODIPY) [9]: 49%
- CC50 [10]: 38.9 µM
- expression levels of HNF4α [11]: remained unaltered
